Measurements published in PubChem BioAssay (NCI).
Where “and” joins values, the source holds several entries; their conditions need not be identical. Equal entries are not always repeated.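 Five compound concentrations were applied to cells in 96-well plates for 48 hours; endpoints were derived by simple linear interpolation of the resulting dose-response curve. Abbreviation: GI50, concentration required for 50% inhibition of growth. TGI: concentration producing complete growth inhibition.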

How the values were obtained:
Experiment in all cases: growth of human tumour cells (NCI), 48 h
786-0 renal = system: 786-0 renal
BT-549 breast = system: BT-549 breast
HCT-116 colon = system: HCT-116 colon
HL-60(TB) leukemia = system: HL-60(TB) leukemia
KM12 colon = system: KM12 colon
OVCAR-8 ovarian = system: OVCAR-8 ovarian
RXF 393 renal = system: RXF 393 renal
SF-539 CNS = system: SF-539 CNS
SW-620 colon = system: SW-620 colon
U251 CNS = system: U251 CNS

Structure (SMILES)	GI50 (786-0 renal)	TGI (786-0 renal)	GI50 (BT-549 breast)	TGI (BT-549 breast)	GI50 (HCT-116 colon)	TGI (HCT-116 colon)	GI50 (HL-60(TB) leukemia)	TGI (HL-60(TB) leukemia)	GI50 (KM12 colon)	TGI (KM12 colon)	GI50 (OVCAR-8 ovarian)	TGI (OVCAR-8 ovarian)	GI50 (RXF 393 renal)	TGI (RXF 393 renal)	GI50 (SF-539 CNS)	TGI (SF-539 CNS)	GI50 (SW-620 colon)	TGI (SW-620 colon)	GI50 (U251 CNS)	TGI (U251 CNS)
CC12CCCC(CC(=O)c3[nH]c4ccccc4c31)C2 (stereo not drawn)	0.879 µM	18.4 µM	0.624 µM	12.8 µM	0.429 µM	18.9 µM	0.34 µM	3.94 µM	0.641 µM	> 54 µM	2.01 µM	30.7 µM	0.629 µM	4.88 µM	0.698 µM	5.75 µM	0.426 µM	> 100 µM	0.689 µM	34.7 µM
O=c1[nH]c(=O)n(C2CC(O)C(CS)O2)cc1F (stereo not drawn)		> 100 µM		> 100 µM		> 100 µM		> 100 µM		> 100 µM		> 63.1 µM		> 100 µM		> 90.2 µM		> 100 µM		> 100 µM
COc1ccc(C(=O)/C=C/c2cccnc2Nc2cc(OC)c(OC)c(OC)c2)cc1	1.22 µM	2.96 µM	3.1 µM	11.6 µM	0.54 µM	2.1 µM	1.27 µM	4.01 µM	0.53 µM	2.79 µM	2.2 µM	11 µM	1.47 µM	5.36 µM	1.81 µM	5.62 µM	0.349 µM	1.59 µM	0.926 µM	7 µM
CN1C(NC(=O)c2ccc(Cl)nc2)=NS(=O)(=O)c2cc(Cl)ccc21	> 100 µM	> 100 µM	> 100 µM	> 100 µM	> 100 µM	> 100 µM	> 100 µM	> 100 µM	> 100 µM	> 100 µM	> 100 µM	> 100 µM	> 100 µM	> 100 µM	> 100 µM	> 100 µM	> 100 µM	> 100 µM	> 100 µM	> 100 µM
CCCNC(=S)N/N=C(\C)c1ccccn1	0.959 µM	> 26 µM	1.44 µM	> 100 µM	< 0.01 µM	> 100 µM		0.333 µM	0.426 µM	> 100 µM	0.0667 µM	> 100 µM	0.847 µM	6.55 µM	0.847 µM	> 30.9 µM	0.0498 µM	> 100 µM	0.0497 µM	> 100 µM
Cc1cc(C2CCCCC2)n(O)c(=O)c1	2.26 µM	> 100 µM	6.19 µM	> 100 µM	1.02 µM	> 100 µM		10.1 µM	2.53 µM	> 100 µM	1.92 µM	> 100 µM	3.02 µM	> 100 µM and 97.2 µM	2.04 µM	80.9 µM and 93.8 µM	3.38 µM	> 100 µM	1.13 µM	
COc1cc(C(=O)O[C@H](C(N)=O)[C@]2(C)CO2)c2ccccc2c1	5.08 µM	17.3 µM	18.5 µM	38.9 µM	5.21 µM	15.8 µM	40.9 µM	> 100 µM	15.6 µM	32.4 µM	5.87 µM	25.3 µM	17.3 µM	47.3 µM	2.41 µM	7.55 µM	18.8 µM	> 100 µM	18.6 µM	35.4 µM
Cc1[nH]c(N=Nc2ccccc2)nc1N=Nc1ccccc1	2.75 µM	10.2 µM	2.08 µM	8.11 µM	3.12 µM	27.6 µM	2.56 µM	> 23.6 µM	3.98 µM	> 93.2 µM	3.2 µM	53.1 µM	0.552 µM	3.43 µM	2.6 µM	6.93 µM	4.7 µM	> 56.7 µM	2.83 µM	> 37.5 µM
CCC1(O)C(=O)OCc2c1cc1n(c2=O)Cc2cc3c(N)cccc3nc2-1 (stereo not drawn)		0.0893 µM		4.95 µM		0.735 µM		0.111 µM		20 µM		7.21 µM		0.348 µM		0.0409 µM	0.0531 µM	11.7 µM		1.21 µM
O=C(O)c1cc(N=Nc2ccc([As](=O)(O)O)cc2)ccc1O		> 100 µM		> 100 µM		> 100 µM		> 100 µM		> 100 µM		> 100 µM		> 100 µM		> 100 µM		> 100 µM		> 100 µM
CC(C)(C)C1=CC(=CC=C2C=CN(CCCCCCCCCCCO)C=C2)C=C(C(C)(C)C)C1=O		3.94 µM		4.44 µM		3.05 µM		3.71 µM		4.4 µM		2.1 µM		2.47 µM		3.12 µM		3.08 µM		2.68 µM
COc1ccc(-n2c(SCc3cc(OC)c(OC)c(OC)c3)nc3ccc(C)cc3c2=O)cc1	> 100 µM	> 100 µM	7.37 µM	> 100 µM	3.38 µM	> 100 µM	3.74 µM	> 100 µM	4.57 µM	> 100 µM	> 100 µM	> 100 µM	70.4 µM	> 100 µM	14.8 µM	> 100 µM	4.35 µM	> 100 µM	7.87 µM	> 100 µM
COc1ccc(/C(=N/Nc2ccc([N+](=O)[O-])cc2)Sc2cc(Cl)c(C)cc2S(N)(=O)=O)cc1	4.21 µM	14.9 µM	22.2 µM	42.3 µM	2.31 µM	5.48 µM	40.3 µM	> 100 µM	3.22 µM	9.96 µM	7.28 µM	> 57 µM	4.3 µM	11.5 µM	3.74 µM	9.81 µM	5.86 µM	18.2 µM	7.13 µM	24.3 µM
COC(=O)[C@]12CCC(C)(C)C[C@H]1C1=CC[C@@H]3[C@@]4(C)C/C(=C/c5cccnc5)C(=O)C(C)(C)[C@@H]4CC[C@@]3(C)[C@]1(C)CC2	3.58 µM	17.4 µM	2.56 µM	7.93 µM	2.71 µM	12.1 µM	2.06 µM	5.2 µM	5.06 µM	19.9 µM	3.82 µM	60.8 µM	4.25 µM	17.5 µM	7.43 µM	20.7 µM	5.74 µM	33.3 µM	13.5 µM	46.9 µM
